Series [1] addresses T1, μ opioid receptor (MOR) (Homo sapiens, UniProt P35372).
T1 construct: host or cells: HEK293
The series is described as follows: cell-based. The settings on record: HEK293 stably expressing μ opioid receptor, FLIPR calcium. On the procedure:
The purpose of the experiment was to test the agonistic effects of the compounds of the present invention on μ opioid receptor (MOR), κ opioid receptor (KOR) and δ opioid receptor (DOR), and to evaluate in vitro activity of the compounds according to the half-maximal effect concentration (EC50).
This test was performed using HEK293 cell lines (the stably expressed cell lines were provided by WuXi AppTec) which stably expressed μ opioid receptor, δ opioid receptor or κ opioid receptor respectively. […] The cells were centrifuged at 1000 rpm for 5 minutes at room temperature to precipitate. The supernatant was sucked out, be careful not to suck out cells. The precipitate was flicked into the loose cells and resuspend in 45 ml DMEM medium. The Vi-CELL XR automatic cell viability detector (BECKMAN COULTER) was used to count the cells, and the cell concentration was adjusted to 10×10^5 cells/ml based on the counting results.
Preparation of probenecid mother solution: 1 ml of FLIPR test solution was added to 77 mg probenecid to prepare a 250 mM solution. The solution was freshly prepared just before use.
The solution was freshly prepared just before use.
The cell plate prepared above was removed from the incubator and 20 ul 2× Fluo-4 Direct™ buffer was added thereto. The final volume in the cell plate was […]. The plate was incubated at 37° C., under 5% CO2 for 50 minutes, and incubated at room temperature for 10 minutes, then was placed into the FLIPR instrument (MD), and the compound plate and pipette box was placed into. The protocol was run on the […] platform, 10 μl of positive drug or the test compound was transfered to the cell plate from the compound plate, and the fluorescent signal was read.
The signal value generated by each well was calculated, and the calculation formula was that: the activity %=(signal value of the test compound−signal value of the solvent)/(signal value of the positive drug−signal value of the solvent).

In series [2] the target is T2, cAMP pathway of MOR receptor (Homo sapiens, UniProt P35372).
T2 construct: host or cells: HEK293 (cAMP Hunter cell line)
The experiment in a line: cell-based. The settings on record: cAMP Hunter HEK293 cells, forskolin-induced cAMP; read-out: EC50 of cAMP levels affected by agonistic effect on MOR. An excerpt: The purpose of this experiment was to test the agonistic effect of the compounds of the invention on the cAMP pathway of MOR and to evaluate the in vitro activity of the compounds according to EC50.
In this experiment, HitHunter cAMP Assay EFC technology of DiscoverX was used to measure the cAMP level in cells and monitor the functional status of G-protein coupled receptors (GPCRs).
The amount of signal produced was directly proportional to the amount of cAMP in the cell.
The MOR receptor was bound to the inhibitory Gαi protein, so forskolin (for inducing cAMP signal) was used to induce cAMP expression in the experiment, and the inhibitory effect of the compounds on the above induction was measured.
The cAMP Hunter cell line (HEK293, DiscoverX) was removed from the freezer and expanded according to the Cell Standard Operating Procedure (SOP), 20 μL was collected and inoculated into a 384-well microplate and incubated at 37° C. overnight.
The HitHunter cAMP Assay test kit (DiscoverX, 90-0075sm) was used, the kit contained cAMP buffer, cAMP detection solution, and cAMP working solution A.
The formula was used to calculate the percentage of signal activity per well=100%×(1−(average RLU of the test samples−average RLU of the MAX controls)/(average RLU of the solvent controls−average RLU of the MAX controls)). wherein, the MAX control referred to the fluorescence signal value of the endorphin solution, and the solvent control referred to the fluorescence signal value of DMSO. The DiscoveRx CBIS data analysis workstation (ChemInnovation, CA) was used to perform statistical analysis of the percentage of signal activity and the concentration of the compounds by the agonist formula (comes with the software, universal) to calculate the EC50 value.

Series [3] has as its target T3, β-arrestin signaling pathway of MOR (Homo sapiens, UniProt P35372).
T3 construct: host or cells: HEK293 (PathHunter cell line)
The series is described as follows: cell-based. To be noted: PathHunter HEK293 cells, relative to endorphin MAX control.

Series [4] has as its system SD rats. The experiment in a line: Respiratory depression in rats, arterial blood gas PCO2. Type of series: in vivo. An excerpt:
8-week-old male SD rats weighing 200 g-300 g were used as experimental animals to determine the effect of the compound of Example H05, the compound of Example H08, the compound of Example H10, the compound of Example H16, the compound of Example H17, the compound of Example H18, the compound of Example H21, and the compound of Example H24 on the partial pressure of blood in rats after intravenous administration. The effects of the compounds of the invention on respiratory depression were investigated.
After the rats were acclimatized to the experimental environment for 3 days, each animal was anesthetized with sodium pentobarbital (50-60 mg/kg, ip), and then the right common carotid artery was isolated and the unilateral carotid artery tube-bury surgery was performed (PE60, ID*OD*length as 0.76 mm*1.22 mm*20 cm, buried into the artery 1 cm deep, and the tube was filled with heparin sodium tube sealing solution).

T2 sequence (P35372 whole entry): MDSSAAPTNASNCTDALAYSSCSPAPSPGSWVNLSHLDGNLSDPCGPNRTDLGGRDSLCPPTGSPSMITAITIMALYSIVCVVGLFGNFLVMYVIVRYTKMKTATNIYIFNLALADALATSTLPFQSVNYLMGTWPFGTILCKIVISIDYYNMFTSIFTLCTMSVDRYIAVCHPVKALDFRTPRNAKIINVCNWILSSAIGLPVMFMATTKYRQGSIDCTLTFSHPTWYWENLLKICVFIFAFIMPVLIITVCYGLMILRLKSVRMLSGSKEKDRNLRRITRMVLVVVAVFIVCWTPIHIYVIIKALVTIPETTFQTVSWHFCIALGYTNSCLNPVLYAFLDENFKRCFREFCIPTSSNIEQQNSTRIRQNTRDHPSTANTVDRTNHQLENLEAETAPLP
T3 sequence (P35372 whole entry): as above
T1 sequence (P35372 whole entry, species assumed): as the sequence (P35372 whole entry) above

Take `Cc1c(Cl)cccc1CNCCC1(c2ccc(F)cn2)CCOC2(CCCC2)C1` (centres unmarked) [Example H32, {2-[9-(5-fluoro-pyridin-2-yl)-6-oxa-spiro[4.5]decan-9-yl]-ethyl}-(3-chloro-2-methyl-benzyl)-amine]: the EC50 in series [1] was determined as 7.35 nM; in series [2], 13.5 nM. The compound further returned an Emax in series [3] of 11.7%.

`FC(F)(F)c1ccsc1CNCCC1(c2ccccn2)CCOC2(CCCC2)C1` (centres unmarked) [Example H14, ((3-trifluoromethylthiophen-2-yl)methyl)-[2-(9-(pyridin-2-yl)-6-oxaspiro[4.5]decan-9-yl)ethyl]a mine]: the half-maximal effective concentration (EC50) in series [1] turned out to be 2.1 nM; in series [2], 15.9 nM. In addition, the Emax in series [3] is 1.82%.

For the compound `Fc1ccc(C2(CCNCc3sccc3OC(F)F)CCOC3(CCCC3)C2)nc1` (centres unmarked) [Example H33, {2-[9-(5-fluoro-pyridin-2-yl)-6-oxa-spiro[4.5]decan-9-yl]-ethyl}-((3-difluoromethoxythiophen-2-yl) -methyl)-amine], the values for the EC50 in series [1] and in series [2] were 5.25 nM and 12 nM, respectively. The Emax in series [3] came to 8.69%.

For the compound `COc1[nH]ncc1CNCCC1(c2ccccn2)CCOC2(CCCC2)C1` (centres unmarked) [Example H25, [(5-methoxy-1H-pyrazol-4-yl)methyl]-[2-(9-(pyridin-2-yl)-6-oxaspiro[4.5]decan-9-yl)ethyl] amine], the EC50 in series [1] worked out at 2.02 nM; in series [2], 12.8 nM. The Emax in series [3] was 3.2%.

In the case of `Fc1ccc(C2(CCNCc3ccccc3OC(F)F)CCOC3(CCCC3)C2)nc1` (centres unmarked) [Example H29, {2-[9-(5-fluoro-pyridin-2-yl) -6-oxa-spiro[4.5]decan-9-yl]-ethyl}-(2-(difluoromethoxy)-benzyl) -amine], the EC50 is 6.09 nM in series [1] and 10.4 nM in series [2]. For the same compound, the Emax in series [3] was found to be 7.07%.

As to `Cc1ccc(CNCCC2(c3ccc(F)cn3)CCOC3(CCCC3)C2)cc1C` (centres unmarked) [Example H31, {2-[9-(5-fluoro-pyridin-2-yl)-6-oxa-spiro[4.5]decan-9-yl]-ethyl}-(3,4-dimethyl-benzyl)-amine], the EC50 turned out to be 3.83 nM in series [1] and 8.73 nM in series [2]. The same compound gave an Emax in series [3] of 5.06%.

Take `Fc1ccc(C2(CCNCc3sccc3Cl)CCOC3(CCCC3)C2)nc1` (centres unmarked) [Example H30, {2-[9-(5-fluoro-pyridin-2-yl)-6-oxa-spiro[4.5]decan-9-yl]-ethyl}-((3-chlorothiophen-2-yl)-methyl)-amine]: the EC50 in series [1] amounted to 5.62 nM; in series [2], 17.4 nM. Besides, in series [3], the Emax is 2.91%.

For `FC(F)(F)Oc1c(Br)cccc1CNCCC1(c2ccccn2)CCOC2(CCCC2)C1` (centres unmarked) [Example H28, (3-bromo-2-trifluoromethoxybenzyl)-[2-(9-pyridin-2-yl-6-oxa-spiro[4.5]decan-9-yl)-ethyl]-amine], the EC50 came to 6.35 nM in series [1] and 14.2 nM in series [2]. Further, in series [3], the maximal effect (Emax) came to 6.26%.

As to `CN1CC[C@]23c4c5ccc(O)c4O[C@H]2[C@@H](O)C=C[C@H]3[C@H]1C5` [morphine, reference compound], the “PCO2, 5 min before administration” value in series [4] (arterial blood, before administration) is 36.41 ± 0.98 mmHg. Further, the “PCO2, 5 min after administration” value in series [4] (intravenous single dose 0.3 mg/kg (morphine 24 mg/kg), 5 min) is reported as 37.26 ± 1.18 mmHg. Further, the “PCO2, 30 min after administration” value in series [4] (intravenous single dose 0.3 mg/kg (morphine 24 mg/kg), 30 min) is reported as 40.94 ± 2.78 mmHg. Moreover, the “PCO2, 60 min after administration” value in series [4] (intravenous single dose 0.3 mg/kg (morphine 24 mg/kg), 60 min) came to 58.63 ± 3.53 mmHg. In addition, the “PCO2, 120 min after administration” value in series [4] (intravenous single dose 0.3 mg/kg (morphine 24 mg/kg), 120 min) stood at 56.9 ± 4.05 mmHg.

On to `Oc1ccc(CNCCC2(c3ccccn3)CCOC3(CCCC3)C2)c(OC(F)(F)F)c1` (centres unmarked) [Example H15, 4-{[2-(9-(pyridin-2-yl)-6-oxaspiro[4.5]decan-9-yl)ethylamine]methyl}-3-trifluoromethoxyphenol], for which the EC50 in series [1] was 3.32 nM; in series [2] it was 4.28 nM. In addition, the Emax in series [3] turned out to be 15.8%.

On to `FC(F)(F)Oc1ccccc1CNCCC1(c2ccccn2)CCOC2(CCCC2)C1` (centres unmarked) [Example H22, (2-trifluoromethoxybenzyl)-[2-(9-pyridin-2-yl-6-oxa-spiro[4.5]decan-9-yl) -ethyl]-amine], for which the figures for the EC50 in series [1] and in series [2] were 1.04 nM and 11.9 nM, respectively. The same compound gave an Emax in series [3] of 2.31%.

Consider `COc1ccsc1CNC(C)CC1(c2ccccn2)CCOC2(CCCC2)C1` (centres unmarked) [Example H27], for which the concentration giving a half-maximal response (EC50) in series [1] was 4.01 nM; in series [2], 12 nM. In series [3], the Emax was determined as 3.32%.

As for `FC(F)(F)Oc1ccc(CNCCC2(c3ccccn3)CCOC3(CCCC3)C2)cc1` (centres unmarked) [Example H06, (4-trifluoromethoxybenzyl)-[2-(9-(pyridin-2-yl)-6-oxaspiro[4.5]decan-9-yl)ethyl]amine], the EC50 in series [1] stood at 6.1 nM; in series [2], 11.8 nM. In addition, the maximum response (Emax) in series [3] was determined as 0.66%.

Regarding `Fc1cnc(C2(CCNCc3ccccc3OC(F)(F)F)CCOC3(CCCC3)C2)c(Cl)c1` (centres unmarked) [Example H09, (2-trifluoromethoxybenzyl)-[2-(9-(3-chloro-5-fluoropyridin-2-yl)-6-oxaspiro[4.5]decan-9-yl)ethyl]amine], the results for the EC50 in series [1] and in series [2] were 4.12 nM and 8.45 nM, respectively. Further, the Emax in series [3] came to 3.28%.

For the compound `Cc1ccc(CNCCC2(c3ccccn3)CCOC3(CCCC3)C2)c(OC(F)(F)F)c1` (centres unmarked) [Example H12, (4-methyl-2-trifluoromethoxybenzyl)-[2-(9-(pyridin-2-yl)-6-oxaspiro[4.5]decan-9-yl)ethyl]amine], the EC50 in series [1] stood at 2.04 nM; in series [2], 5.51 nM. In series [3], this compound yielded an Emax of 32.2%.

On to `c1ccc(C2(CCN3CCc4ccsc4C3)CCOC3(CCCC3)C2)nc1` (centres unmarked) [Example H23, 6-[2-(9-pyridin-2-yl-6-oxa-spiro[4.5]decan-9-yl)-ethyl]-4,5,6,7-tetrahydro-thieno[2,3-c]pyridine], for which the results for the EC50 in series [1] and in series [2] were 4.08 nM and 9.73 nM, respectively. Also, the Emax in series [3] was 2.2%.

Consider `FC(F)(F)c1ccc2c(c1)CN(CCC1(c3ccccn3)CCOC3(CCCC3)C1)CC2` (centres unmarked) [Example H19, 2-[2-(9-(pyridin-2-yl)-6-oxaspiro[4.5]decan-9-yl)ethyl]-7-trifluoromethyl-1,2,3,4-tetrahydroisoquinoline], for which the EC50 in series [1] came to 5.43 nM; in series [2], 18.6 nM. The Emax in series [3] was 1.12%.

On to `COc1ccc2c(c1)CN(CCC1(c3ccccn3)CCOC3(CCCC3)C1)CC2` (centres unmarked) [Example H20, 7-methoxy-2-[2-(9-pyridin-2-yl-6-oxa-spiro[4.5]decan-9-yl)-ethyl]-1,2,3,4-tetrahydroisoquinoline], for which the EC50 in series [1] turned out to be 3.53 nM; in series [2], 19.9 nM. The same compound registered an Emax in series [3] of 2.12%.

Turning to `CNc1ccccc1CNCCC1(c2ccccn2)CCOC2(CCCC2)C1` (centres unmarked) [Example H03], the EC50 was 6.47 nM in series [1] and 4.36 nM in series [2]. The same compound registered an Emax in series [3] of 3.19%.

The term EC50 denotes the concentration giving half of the maximal effect. The term Emax denotes the size of the effect at its maximum, as opposed to the concentration needed.

These data come from patent US11072601B2, “μ-opioid receptor agonist and preparation method therefor and use thereof in field of medicine” (SHANGHAI SYNERGY PHARMACEUTICAL SCIENCES CO., LTD., priority 2017, dated 2021).
